Assays:
[1] = molecular target: T1, Aβ plaques (Homo sapiens, UniProt P05067); assay: Autoradiographical analysis of binding to cryosections from cortex of AD patients and controls; conditions: F-18 labeled compound; Alzheimer's disease patients (AD) vs controls without Aβ plaques
T1 construct: controls without Aβ plaques; from tissue; host or cells: frontal lobe / cortex sections (frozen and paraffin) from AD patients, FTD patients and age-matched controls
How it was run: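 Frozen (18 μm) and deparaffinized paraffin (6 μm) frontal-lobe sections from Alzheimer's, frontotemporal dementia and age-matched control brains were incubated 1.5 h at room temperature with F-18 test compound at 10 Bq/μl in 25 mM Hepes pH 7.4, 0.1% BSA. Blocking used 1000-fold excess unlabeled compound; phosphoimager readout.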

[2] = Biodistribution: organ distribution of F-18 signal in mice; type: in vivo, male NMRI mice; conditions: for Organ distribution of F-18 signal, intestine: intestine (with content); for Organ distribution of F-18 signal, stomach: stomach (without content)
How it was run: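 Male NMRI mice (~30 g, 3 per time point) received ca. 150 kBq of the test compound i.v. via tail vein. At 2, 5, 30, 60 and 240 min, urine and feces were collected and organs and tissues taken for gamma counting. Values are decay-corrected % ID/g ± SD.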

T1 sequence (P05067 672-713 limits assumed): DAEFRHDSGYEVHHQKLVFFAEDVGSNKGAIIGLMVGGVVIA

SMILES: O=C(NCC(=O)N1CCN(c2ccc(OCc3ccccc3)cc2)CC1)c1cccnc1[18F] [Example 12c, N-{2-[4-(4-Benzyloxy-phenyl)-piperazin-1-yl]-2-oxoethyl}-2-[F-18]-fluoro-nicotinamide]
- autoradiographical analysis of binding to cryosections from cortex [1]: Specific binding in plaque-rich regions of AD samples
- Organ distribution of F-18 signal, adrenals ([2]; 2 min post i.v. injection): 6.60 % ID/g
- Organ distribution of F-18 signal, adrenals ([2]; 5 min post i.v. injection): 10.38 % ID/g
- Organ distribution of F-18 signal, adrenals ([2]; 30 min post i.v. injection): 2.77 % ID/g
- Organ distribution of F-18 signal, adrenals ([2]; 60 min post i.v. injection): 1.55 % ID/g
- Organ distribution of F-18 signal, adrenals ([2]; 240 min post i.v. injection): 0.40 % ID/g
- Organ distribution of F-18 signal, blood ([2]; 2 min post i.v. injection): 1.78 % ID/g
- Organ distribution of F-18 signal, blood ([2]; 5 min post i.v. injection): 1.90 % ID/g
- Organ distribution of F-18 signal, blood ([2]; 30 min post i.v. injection): 1.30 % ID/g
- Organ distribution of F-18 signal, blood ([2]; 60 min post i.v. injection): 0.70 % ID/g
- Organ distribution of F-18 signal, blood ([2]; 240 min post i.v. injection): 0.09 % ID/g
- Organ distribution of F-18 signal, brain ([2]; 2 min post i.v. injection): 5.37 % ID/g
- Organ distribution of F-18 signal, brain ([2]; 5 min post i.v. injection): 4.60 % ID/g
- Organ distribution of F-18 signal, brain ([2]; 30 min post i.v. injection): 1.28 % ID/g
- Organ distribution of F-18 signal, brain ([2]; 60 min post i.v. injection): 0.60 % ID/g
- Organ distribution of F-18 signal, brain ([2]; 240 min post i.v. injection): 0.07 % ID/g
- Organ distribution of F-18 signal, fat ([2]; 2 min post i.v. injection): 1.00 % ID/g
- Organ distribution of F-18 signal, fat ([2]; 5 min post i.v. injection): 1.92 % ID/g
- Organ distribution of F-18 signal, fat ([2]; 30 min post i.v. injection): 1.89 % ID/g
- Organ distribution of F-18 signal, fat ([2]; 60 min post i.v. injection): 1.29 % ID/g
- Organ distribution of F-18 signal, fat ([2]; 240 min post i.v. injection): 0.11 % ID/g
- Organ distribution of F-18 signal, femur ([2]; 2 min post i.v. injection): 1.70 % ID/g
- Organ distribution of F-18 signal, femur ([2]; 5 min post i.v. injection): 1.63 % ID/g
- Organ distribution of F-18 signal, femur ([2]; 30 min post i.v. injection): 5.55 % ID/g
- Organ distribution of F-18 signal, femur ([2]; 60 min post i.v. injection): 7.65 % ID/g
- Organ distribution of F-18 signal, femur ([2]; 240 min post i.v. injection): 7.96 % ID/g
- Organ distribution of F-18 signal, heart ([2]; 2 min post i.v. injection): 4.76 % ID/g
- Organ distribution of F-18 signal, heart ([2]; 5 min post i.v. injection): 4.28 % ID/g
- Organ distribution of F-18 signal, heart ([2]; 30 min post i.v. injection): 1.52 % ID/g
- Organ distribution of F-18 signal, heart ([2]; 60 min post i.v. injection): 0.69 % ID/g
- Organ distribution of F-18 signal, heart ([2]; 240 min post i.v. injection): 0.08 % ID/g
- Organ distribution of F-18 signal, intestine ([2]; 2 min post i.v. injection): 1.78 % ID/g
- Organ distribution of F-18 signal, intestine ([2]; 5 min post i.v. injection): 2.44 % ID/g
- Organ distribution of F-18 signal, intestine ([2]; 30 min post i.v. injection): 6.62 % ID/g
- Organ distribution of F-18 signal, intestine ([2]; 60 min post i.v. injection): 8.88 % ID/g
- Organ distribution of F-18 signal, intestine ([2]; 240 min post i.v. injection): 10.54 % ID/g
- Organ distribution of F-18 signal, kidney ([2]; 2 min post i.v. injection): 7.70 % ID/g
- Organ distribution of F-18 signal, kidney ([2]; 5 min post i.v. injection): 7.76 % ID/g
- Organ distribution of F-18 signal, kidney ([2]; 30 min post i.v. injection): 7.88 % ID/g
- Organ distribution of F-18 signal, kidney ([2]; 60 min post i.v. injection): 3.63 % ID/g
- Organ distribution of F-18 signal, kidney ([2]; 240 min post i.v. injection): 0.58 % ID/g
- Organ distribution of F-18 signal, liver ([2]; 2 min post i.v. injection): 5.84 % ID/g
- Organ distribution of F-18 signal, liver ([2]; 5 min post i.v. injection): 8.93 % ID/g
- Organ distribution of F-18 signal, liver ([2]; 30 min post i.v. injection): 8.20 % ID/g
- Organ distribution of F-18 signal, liver ([2]; 60 min post i.v. injection): 6.01 % ID/g
- Organ distribution of F-18 signal, liver ([2]; 240 min post i.v. injection): 2.40 % ID/g
- Organ distribution of F-18 signal, lung ([2]; 2 min post i.v. injection): 3.52 % ID/g
- Organ distribution of F-18 signal, lung ([2]; 5 min post i.v. injection): 3.73 % ID/g
- Organ distribution of F-18 signal, lung ([2]; 30 min post i.v. injection): 1.78 % ID/g
- Organ distribution of F-18 signal, lung ([2]; 60 min post i.v. injection): 0.79 % ID/g
- Organ distribution of F-18 signal, lung ([2]; 240 min post i.v. injection): 0.15 % ID/g
- Organ distribution of F-18 signal, muscle ([2]; 2 min post i.v. injection): 2.48 % ID/g
- Organ distribution of F-18 signal, muscle ([2]; 5 min post i.v. injection): 17.41 % ID/g
- Organ distribution of F-18 signal, muscle ([2]; 30 min post i.v. injection): 0.88 % ID/g
- Organ distribution of F-18 signal, muscle ([2]; 60 min post i.v. injection): 0.47 % ID/g
- Organ distribution of F-18 signal, muscle ([2]; 240 min post i.v. injection): 0.06 % ID/g
- Organ distribution of F-18 signal, pancreas ([2]; 2 min post i.v. injection): 3.58 % ID/g
- Organ distribution of F-18 signal, pancreas ([2]; 5 min post i.v. injection): 4.30 % ID/g
- Organ distribution of F-18 signal, pancreas ([2]; 30 min post i.v. injection): 1.55 % ID/g
- Organ distribution of F-18 signal, pancreas ([2]; 60 min post i.v. injection): 0.75 % ID/g
- Organ distribution of F-18 signal, pancreas ([2]; 240 min post i.v. injection): 0.12 % ID/g
- Organ distribution of F-18 signal, skin ([2]; 2 min post i.v. injection): 1.25 % ID/g
- Organ distribution of F-18 signal, skin ([2]; 5 min post i.v. injection): 1.23 % ID/g
- Organ distribution of F-18 signal, skin ([2]; 30 min post i.v. injection): 1.51 % ID/g
- Organ distribution of F-18 signal, skin ([2]; 60 min post i.v. injection): 0.66 % ID/g
- Organ distribution of F-18 signal, skin ([2]; 240 min post i.v. injection): 0.08 % ID/g
- Organ distribution of F-18 signal, spleen ([2]; 2 min post i.v. injection): 1.32 % ID/g
- Organ distribution of F-18 signal, spleen ([2]; 5 min post i.v. injection): 2.08 % ID/g
- Organ distribution of F-18 signal, spleen ([2]; 30 min post i.v. injection): 0.87 % ID/g
- Organ distribution of F-18 signal, spleen ([2]; 60 min post i.v. injection): 0.42 % ID/g
- Organ distribution of F-18 signal, spleen ([2]; 240 min post i.v. injection): 0.06 % ID/g
- Organ distribution of F-18 signal, stomach ([2]; 2 min post i.v. injection): 3.14 % ID/g
- Organ distribution of F-18 signal, stomach ([2]; 5 min post i.v. injection): 3.52 % ID/g
- Organ distribution of F-18 signal, stomach ([2]; 30 min post i.v. injection): 1.91 % ID/g
- Organ distribution of F-18 signal, stomach ([2]; 60 min post i.v. injection): 1.89 % ID/g
- Organ distribution of F-18 signal, stomach ([2]; 240 min post i.v. injection): 0.71 % ID/g
- Organ distribution of F-18 signal, tail ([2]; 2 min post i.v. injection): 12.72 % ID/g
- Organ distribution of F-18 signal, tail ([2]; 5 min post i.v. injection): 6.80 % ID/g
- Organ distribution of F-18 signal, tail ([2]; 30 min post i.v. injection): 2.72 % ID/g
- Organ distribution of F-18 signal, tail ([2]; 60 min post i.v. injection): 3.08 % ID/g
- Organ distribution of F-18 signal, tail ([2]; 240 min post i.v. injection): 1.30 % ID/g
- Organ distribution of F-18 signal, testicle ([2]; 2 min post i.v. injection): 1.21 % ID/g
- Organ distribution of F-18 signal, testicle ([2]; 5 min post i.v. injection): 1.79 % ID/g
- Organ distribution of F-18 signal, testicle ([2]; 30 min post i.v. injection): 1.09 % ID/g
- Organ distribution of F-18 signal, testicle ([2]; 60 min post i.v. injection): 0.58 % ID/g
- Organ distribution of F-18 signal, testicle ([2]; 240 min post i.v. injection): 0.08 % ID/g
- Organ distribution of F-18 signal, thyroid ([2]; 2 min post i.v. injection): 3.59 % ID/g
- Organ distribution of F-18 signal, thyroid ([2]; 5 min post i.v. injection): 3.10 % ID/g
- Organ distribution of F-18 signal, thyroid ([2]; 30 min post i.v. injection): 1.92 % ID/g
- Organ distribution of F-18 signal, thyroid ([2]; 60 min post i.v. injection): 1.27 % ID/g
- Organ distribution of F-18 signal, thyroid ([2]; 240 min post i.v. injection): 0.41 % ID/g
